This note sets out measurements from US20250215012A1, “IKZF2 DEGRADERS AND USES THEREOF” (REGENTS OF THE UNIVERSITY OF MICHIGAN, priority 2022, published 2025).

The target of test [1] is His tagged CRBN+DDB−DLS7+CXU4 (Homo sapiens (Human), UniProt Q96SW2). Briefly: IC50 Measurements for Binding to CRBN/DDBI (HTRF). As to conditions: Cy5-labeled Thalidomide probe, one hour incubation. In general terms: In TR-FRET formats the signal depends on donor and acceptor labels being close together.
The target of test [2] is IKZF1 (Homo sapiens (Human), UniProt Q13422+Q96SW2). Briefly: IKZF1 HiBit Assay (HEK293T Flp-in-HiBiT-IKZF1 stable cell line). As to conditions: HEK293T Flp-in-HiBiT-IKZF1 cells, 6 hrs; for DC50: read-out: IKZF1 HiBit degradation DC50; for Dmax: HEK-293T, read-out: IKZF1 HiBit degradation Dmax. Format: cell-based. As to the method:
The HiBiT protein tagging system was applied to modified Cells: modified HEK293T Flp-in-HiBiT-IKZF1 stable cell line (polyclone) via a CRISPR/Cas9—mediated insertion of the HiBiT peptide tag (Promega™) to the N-terminus of the IKZF2 gene locus (Neon™ transfection system).
Test compound from 10 mM and reference compound (CC-92480 from 50 mM and I-57 from 10 mM) are diluted at 3 folds for 11 doses. 25 nL of diluted compound is transferred to assay plates (Corning3571) using ECHO550, the final DMSO concentration @0.1%. The cells are seeded in 3000/[…]/well to compound plates. The plates are incubated for 6 hrs in TC incubator. The amount of Nano-Glo® HiBiT lytic reagent needed to perform the desired experiments is calculated. The Nano-Glo® HiBiT lytic reagent is brought to room temperature. The LgBiT protein is diluted to 1:100 and the Nano-Glo® HiBiT lytic substrate is brought to 1:50 into an appropriate volume of room temperature Nano-Glo® HiBiT lytic buffer. […] of the detection reagent (or without LgBiT) is dispensed to corresponding well according to the layout. The plate is shaked for 10 mins at room temperature. After briefly centrifuging, the plate is read on Envision. At the indicated timepoints, the Nano-Glo® HiBiT lytic detection system (Promega™) was utilized for detecting bioluminescence of the HiBiT tag in treated cells: abundance of the tag is proportionate to the level of luminescence. Following normalization to DMSO, dose-response curves were plotted (GraphPad Prism) to determine the concentration points at which 50% of HiBiT-Ikaros degradation was achieved by each compound. The extent of degradation (range of luminescence) from the highest to lowest concentration points was calculated to determine the Dm.
(With HiBiT, luminescence reflects the tagged protein that the partner subunit can reach.)

Test [3] concerns the target IKZF2 (Homo sapiens (Human), UniProt Q96SW2+Q9UKS7). Briefly: IKZF2 HiBit Assay (HEK293T Flp-in-HiBiT cells). In kind it is cell-based. As to conditions: HEK293T Flp-in-HiBiT cells, 6 hrs; for DC50: read-out: IKZF2 HiBit degradation DC50; for Dmax: HEK-293T, read-out: IKZF2 HiBit degradation Dmax. As to the method: The HiBiT protein tagging system was applied to modified HEK293T Flp-in-HiBiT cells (polyclone) via a CRISPR/Cas9—mediated insertion of the HiBiT peptide tag (Promega™) to the N-terminus of the IKZF2 gene locus (Neon™ transfection system). Test and reference compounds are diluted from 1 mM at 3 folds for 11 doses. 25 nL of diluted compound is transferred to assay plates (Corning3570) using ECHO550, the final DMSO concentration @0.1%. The cells are seeded in 3000/[…]/well to compound plates. It is then incubated for 6 hrs in TC incubator. The amount of Nano-Glo® HiBiT lytic reagent needed to perform the desired experiments is calculated. The Nano-Glo® HiBiT lytic reagent is brought to room temperature. The LgBiT protein is diluted to 1:100 and the Nano-Glo® HiBiT lytic substrate is diluted to 1:50 into an appropriate volume of room temperature Nano-Glo® HiBiT lytic buffer. […] of the detection reagent (or without LgBiT) is dispensed to corresponding well according to the layout. The plate is then shaked for 10 mins at room temperature. After briefly centrifuge, the plate is read on Envision. At the indicated timepoints, the Nano-Glo® HiBiT lytic detection system (Promega™) was utilized for detecting bioluminescence of the HiBiT tag in treated cells: abundance of the tag is proportionate to the level of luminescence. Following normalization to DMSO, dose-response curves were plotted (GraphPad Prism) to determine the concentration points at which 50% of HiBiT-Helios degradation was achieved by each compound. The extent of degradation (range of luminescence) from the highest to lowest concentration points was calculated to determine the Dmax.

Sequence of IKZF1 (Q13422 whole entry): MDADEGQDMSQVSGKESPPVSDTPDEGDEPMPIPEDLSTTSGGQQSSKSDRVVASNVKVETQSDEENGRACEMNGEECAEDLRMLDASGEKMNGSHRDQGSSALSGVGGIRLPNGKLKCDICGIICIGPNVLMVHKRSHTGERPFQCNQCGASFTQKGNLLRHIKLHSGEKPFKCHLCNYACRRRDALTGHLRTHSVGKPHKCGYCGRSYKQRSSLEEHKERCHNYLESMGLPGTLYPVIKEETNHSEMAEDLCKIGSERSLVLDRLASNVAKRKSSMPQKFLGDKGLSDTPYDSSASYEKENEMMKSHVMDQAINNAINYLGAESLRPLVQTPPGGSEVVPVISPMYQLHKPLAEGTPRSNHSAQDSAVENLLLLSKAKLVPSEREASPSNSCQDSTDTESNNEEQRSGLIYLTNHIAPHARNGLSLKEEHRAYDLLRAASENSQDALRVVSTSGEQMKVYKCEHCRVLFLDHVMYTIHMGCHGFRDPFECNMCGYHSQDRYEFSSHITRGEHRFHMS
Sequence of IKZF1 (Q96SW2 whole entry): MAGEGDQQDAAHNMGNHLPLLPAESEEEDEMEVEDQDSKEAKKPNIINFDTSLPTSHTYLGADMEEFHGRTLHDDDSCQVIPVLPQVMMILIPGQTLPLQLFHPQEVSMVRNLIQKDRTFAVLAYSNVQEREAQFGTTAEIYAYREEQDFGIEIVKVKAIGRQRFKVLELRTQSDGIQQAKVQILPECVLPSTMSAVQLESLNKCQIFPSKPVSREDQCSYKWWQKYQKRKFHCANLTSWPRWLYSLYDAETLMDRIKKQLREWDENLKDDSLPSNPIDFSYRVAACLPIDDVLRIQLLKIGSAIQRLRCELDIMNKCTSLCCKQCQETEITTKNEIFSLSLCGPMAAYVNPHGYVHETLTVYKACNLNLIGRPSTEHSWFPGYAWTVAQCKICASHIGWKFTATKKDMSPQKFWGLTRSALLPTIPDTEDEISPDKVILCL
Sequence of IKZF1 (Q16531 whole entry partner): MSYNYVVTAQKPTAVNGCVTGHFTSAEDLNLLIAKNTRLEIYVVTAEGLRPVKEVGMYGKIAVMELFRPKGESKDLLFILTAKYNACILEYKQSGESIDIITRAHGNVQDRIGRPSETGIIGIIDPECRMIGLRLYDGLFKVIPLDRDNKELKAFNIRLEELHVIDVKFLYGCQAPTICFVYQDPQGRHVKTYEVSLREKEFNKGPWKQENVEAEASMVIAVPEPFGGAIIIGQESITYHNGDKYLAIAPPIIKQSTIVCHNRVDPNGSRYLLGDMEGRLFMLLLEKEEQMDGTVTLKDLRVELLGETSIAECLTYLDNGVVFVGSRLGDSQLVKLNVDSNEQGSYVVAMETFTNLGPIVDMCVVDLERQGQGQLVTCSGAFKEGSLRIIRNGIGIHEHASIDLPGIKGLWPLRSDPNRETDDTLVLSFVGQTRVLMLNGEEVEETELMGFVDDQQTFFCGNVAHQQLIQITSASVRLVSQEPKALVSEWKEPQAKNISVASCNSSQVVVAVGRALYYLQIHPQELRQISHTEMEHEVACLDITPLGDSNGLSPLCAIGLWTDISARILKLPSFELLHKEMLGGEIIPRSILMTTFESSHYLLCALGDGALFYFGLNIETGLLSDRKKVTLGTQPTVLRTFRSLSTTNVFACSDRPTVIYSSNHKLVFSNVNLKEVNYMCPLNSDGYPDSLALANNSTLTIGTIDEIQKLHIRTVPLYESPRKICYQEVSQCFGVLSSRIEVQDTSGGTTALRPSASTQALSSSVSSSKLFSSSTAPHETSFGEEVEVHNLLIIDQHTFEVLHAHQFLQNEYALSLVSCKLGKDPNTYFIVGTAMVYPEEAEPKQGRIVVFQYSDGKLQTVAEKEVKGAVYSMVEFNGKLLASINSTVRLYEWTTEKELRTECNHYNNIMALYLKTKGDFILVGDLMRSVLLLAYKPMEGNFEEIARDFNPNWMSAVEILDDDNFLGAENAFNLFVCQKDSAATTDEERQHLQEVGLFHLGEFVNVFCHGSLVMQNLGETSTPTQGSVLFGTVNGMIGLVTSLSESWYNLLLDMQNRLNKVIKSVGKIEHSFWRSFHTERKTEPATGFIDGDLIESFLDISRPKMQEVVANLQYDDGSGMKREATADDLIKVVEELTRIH
Sequence of IKZF2 (Q9UKS7 whole entry): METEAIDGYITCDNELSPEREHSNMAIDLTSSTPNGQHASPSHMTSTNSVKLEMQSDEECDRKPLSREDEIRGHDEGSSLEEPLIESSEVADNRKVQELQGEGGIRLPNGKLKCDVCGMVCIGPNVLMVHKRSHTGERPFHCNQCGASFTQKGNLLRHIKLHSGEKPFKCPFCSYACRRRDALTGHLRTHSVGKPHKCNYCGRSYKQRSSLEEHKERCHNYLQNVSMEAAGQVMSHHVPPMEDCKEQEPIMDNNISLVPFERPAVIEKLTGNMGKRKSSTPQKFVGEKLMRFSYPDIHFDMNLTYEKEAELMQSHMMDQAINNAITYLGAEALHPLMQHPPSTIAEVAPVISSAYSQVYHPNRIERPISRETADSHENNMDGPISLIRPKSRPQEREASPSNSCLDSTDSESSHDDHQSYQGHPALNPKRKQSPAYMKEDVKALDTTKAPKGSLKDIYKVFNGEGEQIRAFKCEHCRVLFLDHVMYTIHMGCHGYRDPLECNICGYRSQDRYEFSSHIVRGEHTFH
Sequence of IKZF2 (Q96SW2 whole entry): as the sequence (Q96SW2 whole entry) above
Sequence of IKZF2 (Q16531 whole entry partner): as the sequence (Q16531 whole entry partner) above
Sequence of His tagged CRBN+DDB−DLS7+CXU4 (Q96SW2 whole entry): as the sequence (Q96SW2 whole entry) above
Sequence of His tagged CRBN+DDB−DLS7+CXU4 (Q16531 whole entry partner): as the sequence (Q16531 whole entry partner) above

By IC50 is commonly meant the midpoint of a concentration-inhibition curve. Broadly, the DC50 is the concentration giving 50% degradation. As a reminder, the Dmax is the greatest extent of degradation seen. The compound `[2H]C1([2H])Oc2c(ccc3c2CN(C2CCC(=O)NC2=O)C3=O)C12CCN(Cc1cccc(-c3cnn(C)c3)c1)CC2` (stereo not shown) [Compound B13, 3-(1′-(3-(1-methyl-1H-pyrazol-4-yl)benzyl)-6-oxo-6,8-dihydro-2H,7H spiro[furo[2,3-e]isoindole-3,4′-piperidin]-7-yl-2,2-d2)piperidine-2,6-dione] returned an IC50 in test [1] of 0.1 to 0.5 µM. Also, in test [2], the DC50 was more than 1 µM and the Dmax is less than 20%. Further, in test [3], the DC50 is 0.001 to 0.01 µM and the Dmax is 60 to 80%.

In test [1], `O=C1CC[C@H](N2Cc3c(ccc4c3OCC43CCN(Cc4cccc5cn[nH]c45)CC3(F)F)C2=O)C(=O)N1` (stereo partly shown) [Compound B44] came in with an IC50 of less than 0.1 µM. In addition, in test [2], the DC50 fell in the range of 0.1 to 1 µM and the Dmax was in the range of 20 to 40%. Besides, in test [3], the DC50 is 0.001 to 0.01 µM and the Dmax is more than 80%.

With `[2H]C([2H])(c1cccc(-c2cnn(C)c2)c1)N1CCC2(COc3c2ccc2c3CN([C@H]3CCC(=O)NC3=O)C2=O)C(F)(F)C1` (stereo partly shown) [Compound B50], the IC50 in test [1] was 0.1 to 0.5 µM. For the same compound, in test [2], the DC50 is more than 1 µM and the Dmax was less than 20%. In test [3], the DC50 lay in the range of 0.001 to 0.01 µM and the Dmax was 60 to 80%.

On to `O=C1CC[C@H](N2Cc3c(ccc4c3OCC43CCN(Cc4cccc5[nH]ncc45)CC3(F)F)C2=O)C(=O)N1` (stereo partly drawn) [Compound B41, (3S)-3-(1′-((1H-indazol-4-yl)methyl)-3′,3′-difluoro-6-oxo-6,8-dihydro-2H,7H-spiro[furo[2,3-e]isoindole-3,4′-piperidin]-7-yl)piperidine-2,6-dione], for which the IC50 in test [1] was 0.1 to 0.5 µM. Also, in test [2], the DC50 lay in the range of 0.01 to 0.1 µM and the greatest degradation seen (Dmax) is 20 to 40%. For the same compound, in test [3], the DC50 was 0.001 to 0.01 µM and the Dmax was 60 to 80%.

The compound `O=C1CCC(N2Cc3c(ccc4c3OCC43CCN(Cc4ccccc4)CC3F)C2=O)C(=O)N1` (stereo not shown) [Compound B23, 3-(1′-benzyl-3′-fluoro-6-oxo-6,8-dihydro-2H,7H-spiro[furo[2,3-e]isoindole-3,4′-piperidin]-7-yl)piperidine-2,6-dione] came in with an IC50 in test [1] of 0.5 to 1 µM. For the same compound, in test [2], the DC50 was more than 1 µM and the Dmax was less than 20%. Moreover, in test [3], the DC50 is more than 1 µM and the Dmax was less than 20%.

`O=C1CC[C@H](N2Cc3c4c(cc(Cl)c3C2=O)C2(CCN(Cc3ccccc3)CC2)CO4)C(=O)N1` [Compound B17, (S)-3-(1′-benzyl-5-chloro-6-oxo-6,8-dihydro-2H,7H-spiro[furo[2,3-e]isoindole-3,4′-piperidin]-7-yl)piperidine-2,6-dione]: the IC50 in test [1] lay within 0.5 to 1 µM. In test [2], the DC50 was more than 1 µM and the maximal degradation (Dmax) was less than 20%. In test [3], the DC50 was more than 1 µM and the Dmax was less than 20%.

`Cn1cc(-c2cccc(CN3CCC4(CC3)COc3c4cc(C#N)c4c3CN([C@H]3CCC(=O)NC3=O)C4=O)c2)cn1` [Compound B19, (S)-7-(2,6-dioxopiperidin-3-yl)-1′-(3-(1-methyl-1H-pyrazol-4-yl)benzyl)-6-oxo-7,8-dihydro-2H,6H-spiro[furo[2,3-e]isoindole-3,4′-piperidine]-5-carbonitrile] displayed an IC50 in test [1] of 1 to 5 µM. Further, in test [2], the DC50 is more than 1 µM and the Dmax was less than 20%. In test [3], the DC50 was 0.1 to 1 µM and the Dmax lay in the range of 40 to 60%.

In test [1], `O=C1CC[C@H](N2Cc3c(ccc4c3OCC43CCN(Cc4ccc5c(c4)C(=O)NC5)CC3(F)F)C2=O)C(=O)N1` (stereo partly drawn) [Compound B31, (3S)-3-(3′,3′-difluoro-6-oxo-1′-((3-oxoisoindolin-5-yl)methyl)-6,8-dihydro-2H,7H-spiro[furo[2,3-e]isoindole-3,4′-piperidin]-7-yl)piperidine-2,6-dione] came in with an IC50 of 0.1 to 0.5 µM. In test [2], the DC50 was more than 1 µM and the Dmax is less than 20%. Besides, in test [3], the DC50 is 0.001 to 0.01 µM and the maximal degradation (Dmax) fell in the range of 60 to 80%.

In test [1], `O=C1CC[C@H](N2Cc3c(ccc4c3OCC43CCN(Cc4cnn(-c5ccc(Cl)cc5)c4C(F)(F)F)CC3)C2=O)C(=O)N1` [Compound B1, (S)-3-(1′-((1-(4-chlorophenyl)-5-(trifluoromethyl)-1H-pyrazol-4-yl)methyl)-6-oxo-6,8-dihydro-2H,7H-spiro[furo[2,3-e]isoindole-3,4′-piperidin]-7-yl) piperidine-2,6-dione] registered an IC50 of 0.5 to 1 µM. In test [2], the DC50 was in the range of 0.1 to 1 µM and the Dmax lay within 20 to 40%. Besides, in test [3], the DC50 lay in the range of 0.001 to 0.01 µM and the Dmax was in the range of 40 to 60%.

Turning to `[2H]C([2H])(c1cccc(-c2cnn(C([2H])([2H])[2H])c2)c1)N1CCC2(CC1)COc1c2ccc2c1CN([C@H]1CCC(=O)NC1=O)C2=O` [Compound B9, (S)-3-(1′-((3-(1-(methyl-d3)-1H-pyrazol-4-yl)phenyl)methyl-d2)-6-oxo-6,8-dihydro-2H,7H-spiro[furo[2,3-e]isoindole-3,4′-piperidin]-7-yl)piperidine-2,6-dione], in test [1], the IC50 is less than 0.1 µM. In test [2], the DC50 is more than 1 µM and the Dmax was less than 20%. Also, in test [3], the DC50 lay in the range of 0.001 to 0.01 µM and the Dmax fell in the range of 60 to 80%.

In turn, `Cn1ncc2cc(CN3CCC4(COc5c4ccc4c5CN([C@H]5CCC(=O)NC5=O)C4=O)C(F)(F)C3)ccc21` (stereo partly drawn) [Compound B38, (3S)-3-(3′,3′-difluoro-1′-((1-methyl-1H-indazol-5-yl)methyl)-6-oxo-6,8-dihydro-2H,7H-spiro[furo[2,3-e]isoindole-3,4′-piperidin]-7-yl) piperidine-2,6-dione] yielded an IC50 in test [1] of 0.1 to 0.5 µM. For the same compound, in test [2], the DC50 was more than 1 µM and the Dmax is less than 20%. Further, in test [3], the DC50 was in the range of 0.001 to 0.01 µM and the Dmax fell in the range of 60 to 80%.

In test [1], `[2H]C([2H])(c1cccc(-c2cnn(C([2H])([2H])[2H])c2)c1)N1CCC2(COc3c2ccc2c3CN([C@H]3CCC(=O)NC3=O)C2=O)C(F)(F)C1` (stereo partly drawn) [Compound B48, (3S)-3-(3′,3′-difluoro-1′-((3-(1-(methyl-d3)-1H-pyrazol-4-yl)phenyl)methyl-d2)-6-oxo-6,8-dihydro-2H,7H-spiro[furo[2,3-e]isoindole-3,4′-piperidin]-7-yl)piperidine-2,6-dione] showed an IC50 of 0.1 to 0.5 µM. The DC50 in test [2] was more than 1 µM; in test [3] it was less than 0.001 µM. In addition, the Dmax is less than 20% in test [2] and 60 to 80% in test [3].

`O=C1CC[C@H](N2Cc3c(ccc4c3OCC43CCN(Cc4cnn(CC5CCOCC5)c4)CC3)C2=O)C(=O)N1` [Compound B6, (S)-3-(6-oxo-1′-((1-((tetrahydro-2H-pyran-4-yl)methyl)-1H-pyrazol-4-yl)methyl)-6,8-dihydro-2H,7H-spiro[furo[2,3-e]isoindole-3,4′-piperidin]-7-yl)piperidine-2,6-dione]: in test [2], the DC50 was more than 1 µM and the Dmax is less than 20%. Also, in test [3], the DC50 is 0.001 to 0.01 µM and the Dmax was in the range of 60 to 80%.
